Laboratory results as given in patent US20170298056A1, “SMALL MOLECULE INHIBITORS OF HIV-1 ENTRY AND METHODS OF USE THEREOF” (Dana-Farber Cancer Institute, Inc., priority 2014, published 2017).
Like-named read-outs stand apart in the source and are kept apart here.

Legend:
[1] = system: HIV-1JR-FL gp120; test: ELISA, binding of monoclonal antibodies to gp120 in presence of compound; conditions: preincubation of gp120 with 18A
Method: Enzyme-linked immunosorbent assay (ELISA). […] Wells were blocked with blocking buffer (5% nonfat dry milk (Bio-Rad) in PBS) for 2 hours and then washed twice with PBS. Between 0.25 and 0.5 μg of purified HIV-1JR-FL gp120 in blocking buffer was added to each well; the plate was incubated for 60 minutes and washed thrice with PBS. […] The plate was incubated for a further 30 minutes and washed thrice with 0.05% Tween in PBS and thrice with PBS. […] The plate was incubated for 30 minutes, washed three times with 0.05% Tween in PBS and three times with PBS, as before, and 80 μl of SuperSignal chemiluminescent substrate (Pierce) was added to each well. The relative light units in each well were measured for 2 sec with a Centro LB 960 luminometer (Berthold Technologies). All procedures were performed at room temperature. Cellbased ELISA was performed.

[2] = system: HIV-1HXBc2; test: Cold inactivation of recombinant virus; assay type: cell-based; conditions: in the presence of 18A vs DMSO or unrelated compounds
Method: For washout experiments, different concentrations of 18A were incubated with the recombinant viruses at 37° C. for 20 minutes. The viruses were laid on a 20% sucrose cushion and ultracentrifuged at 30,000 RPM in an SW55 rotor for 1.5 hours at 4° C. After the supernatant was aspirated, viruses were suspended in 500-1000 μl medium and 90 μl of the virus suspension was used to infect 5000 Cf2Th-CD4/CCR5 cells (5 replicates). The cells were incubated for 48 hours and processed as described above. Sensitivity of recombinant viruses to cold inactivation was measured.

[3] = system: HIV-1JR-FL; test: Viral infection assay, recombinant HIV-1 pseudotyped with JR-FL Env (wild type and mutants), Cf2Th-CD4/CCR5 cells; assay type: cell-based; conditions: for Fold change: mutant/wild-type IC50
Text: HIV-1 Env mutants. Mutations were introduced into the plasmid expressing the fulllength HIV-1YU2 or HIV-1JR-FL Envs using the QuikChange II site-directed mutagenesis protocol or the QuikChange multi site-directed mutagenesis kit (Stratagene). The presence of the desired mutations was confirmed by DNA sequencing. All HIV-1 Env residues are numbered based on alignment with the HXBc2 prototypic sequence, according to current convention.
Production of recombinant HIV-1 expressing luciferase. […] After 48 hours, the supernatant was collected, buffered with 50 mM Hepes pH 7.4 (final concentration) and centrifuged for 5 minutes at 750×g and 4° C. The virus-containing supernatant was used directly or frozen at −80° C.
Viral infection assay. Each test compound was serially diluted in DMSO in a 96-well B&W isoplate (PerkinElmer, Boston, Mass.) using an HP D300 Digital Dispenser, to a final volume of 450 nl. DMSO was used as a control. Viruses pseudotyped with a specific Env were added to each well and incubated briefly at room temperature. Cf2Th-CD4/CCR5 cells were detached with StemPro Accutase Cell Dissociation Reagent (Invitrogen, cat #A11105-01), washed once, and 5000 cells were added to each well. […] Following incubation, the medium was aspirated and cells were lysed with 30 μl of Passive Lysis Buffer (Promega, cat #E1941). The activity of the firefly luciferase, which was used as a reporter protein in the system, was measured with a Centro LB 960 luminometer (Berthold Technologies, Oak Ridge, Tenn.). One hundred microliters of assay buffer (15 mM MgSO4, 15 mM KH2PO4/K2HPO4 pH 7.8, 1 mM ATP and 1 mM DTT) was injected to each well, followed by a 50 μl injection of 1 mM Dluciferin potassium salt (BD Pharmingen, San Jose, Calif.); luminescence was measured for 2 sec. Infection of PBMC was done as above, but 20,000-40,000 cells/well and viruses concentrated by ultracentrifugation were used. After four hours of incubation with viruses, the cells were centrifuged at 200×g for 6 minutes at 4° C., resuspended in 100 μl RPMI-PBMC medium and incubated at 37° C. for an additional 36-40 hours (total 40-44 hours). Supernatant was removed after centrifugation at 400×g for 5 minutes and cells were processed to detect luciferase activity, as described above.

Q: With `O=C(N/N=C/c1ccc(O)cc1)Nc1cccc2nsnc12` [Compound 18A] as the compound, how does the “binding of E51, 17b and 412d (CD4i) antibodies to gp120” value [1] read?
A: Its value is “modest but reproducible decrease”.

Q: And the “binding of most monoclonal antibodies to gp120” value [1]?
A: The value was “not affected”.

Q: What about the “sensitivity of virus to cold inactivation” value [2] of the same compound?
A: Its value is “decreased sensitivity to cold inactivation”.

Q: And the IC50 ([3]; Example 8 table, read-out: IC50 (JR-FL))?
A: Its IC50 is 3.6 µM.

Q: And the Fold change ([3]; JR-FL Env D167A)?
A: The Fold change was 1.5.

Q: And the IC50 ([3]; JR-FL Env D167A, read-out: IC50)?
A: The IC50 was 5.3 ± 1.5 µM.

Q: What about the Fold change ([3]; JR-FL Env E153A) of the same compound?
A: The Fold change was 0.9.

Q: What about the IC50 ([3]; JR-FL Env E153A, read-out: IC50) of the same compound?
A: Its IC50 is 3.1 ± 0.7 µM.

Q: And the Fold change ([3]; JR-FL Env E168K + N188A)?
A: The Fold change was 0.7.

Q: What about the Fold change ([3]; JR-FL Env I109W) of the same compound?
A: Its Fold change is 0.4.

Q: What about the IC50 ([3]; JR-FL Env I109W, read-out: IC50) of the same compound?
A: The IC50 was 1.6 ± 0.8 µM.

Q: What about the Fold change ([3]; JR-FL Env I154A) of the same compound?
A: Its Fold change is 4.8.

Q: What about the IC50 ([3]; JR-FL Env I154A, read-out: IC50) of the same compound?
A: The IC50 was 17.1 ± 0.9 µM.

Q: And the Fold change ([3]; JR-FL Env I194A)?
A: The Fold change was 0.5.

Q: What about the IC50 ([3]; JR-FL Env I194A, read-out: IC50) of the same compound?
A: The IC50 was 1.8 ± 0.4 µM.

Q: And the Fold change ([3]; JR-FL Env I424A)?
A: The Fold change was 4.5.

Q: What about the IC50 ([3]; JR-FL Env I424A, read-out: IC50) of the same compound?
A: Its IC50 is 16.2 ± 2 µM.

Q: What about the Fold change ([3]; JR-FL Env K155A) of the same compound?
A: Its Fold change is 0.6.

Q: What about the IC50 ([3]; JR-FL Env K155A, read-out: IC50) of the same compound?
A: Its IC50 is 2.1 ± 0.9 µM.

Q: And the Fold change ([3]; JR-FL Env K178A)?
A: The Fold change was 0.4.

Q: What about the IC50 ([3]; JR-FL Env K178A, read-out: IC50) of the same compound?
A: The IC50 was 1.6 ± 0.3 µM.

Q: What about the Fold change ([3]; JR-FL Env L175A) of the same compound?
A: Its Fold change is 2.1.

Q: And the IC50 ([3]; JR-FL Env L175A, read-out: IC50)?
A: Its IC50 is 7.7 ± 1.2 µM.

Q: What about the Fold change ([3]; JR-FL Env L179G) of the same compound?
A: Its Fold change is 1.8.

Q: And the IC50 ([3]; JR-FL Env L179G, read-out: IC50)?
A: The IC50 was 6.5 ± 0.7 µM.

Q: And the Fold change ([3]; JR-FL Env L193A)?
A: Its Fold change is 5.0.

Q: What about the IC50 ([3]; JR-FL Env L193A, read-out: IC50) of the same compound?
A: Its IC50 is 18.1 ± 2 µM.

Q: And the Fold change ([3]; JR-FL Env M147A)?
A: The Fold change was 1.3.

Q: What about the IC50 ([3]; JR-FL Env M147A, read-out: IC50) of the same compound?
A: The IC50 was 4.8 ± 1.2 µM.

Q: And the Fold change ([3]; JR-FL Env M434A)?
A: The Fold change was 5.0.

Q: And the IC50 ([3]; JR-FL Env M434A, read-out: IC50)?
A: Its IC50 is 17.9 ± 1.2 µM.

Q: What about the Fold change ([3]; JR-FL Env N136A) of the same compound?
A: The Fold change was 0.5.

Q: And the IC50 ([3]; JR-FL Env N136A, read-out: IC50)?
A: The IC50 was 1.8 ± 0.1 µM.

Q: And the Fold change ([3]; JR-FL Env N139A)?
A: Its Fold change is 0.5.

Q: What about the IC50 ([3]; JR-FL Env N139A, read-out: IC50) of the same compound?
A: The IC50 was 1.9 ± 0.2 µM.

Q: What about the Fold change ([3]; JR-FL Env N141A) of the same compound?
A: The Fold change was 0.5.

Q: What about the IC50 ([3]; JR-FL Env N141A, read-out: IC50) of the same compound?
A: The IC50 was 1.7 ± 0.3 µM.

Q: And the Fold change ([3]; JR-FL Env N156A)?
A: The Fold change was 5.2.

Q: What about the IC50 ([3]; JR-FL Env N156A, read-out: IC50) of the same compound?
A: The IC50 was 18.7 ± 1.5 µM.

Q: And the Fold change ([3]; JR-FL Env N187A + N188A)?
A: The Fold change was 0.7.

Q: What about the Fold change ([3]; JR-FL Env N188A) of the same compound?
A: Its Fold change is 1.2.

Q: And the IC50 ([3]; JR-FL Env N188A, read-out: IC50)?
A: Its IC50 is 4.2 ± 0.8 µM.

Q: And the Fold change ([3]; JR-FL Env Q114E)?
A: Its Fold change is 0.9.

Q: And the IC50 ([3]; JR-FL Env Q114E, read-out: IC50)?
A: Its IC50 is 3.4 ± 0.6 µM.

Q: And the Fold change ([3]; JR-FL Env Q422A)?
A: The Fold change was 2.2.

Q: And the IC50 ([3]; JR-FL Env Q422A, read-out: IC50)?
A: The IC50 was 7.8 ± 1.7 µM.

Q: What about the Fold change ([3]; JR-FL Env R166A) of the same compound?
A: Its Fold change is 0.8.

Q: And the IC50 ([3]; JR-FL Env R166A, read-out: IC50)?
A: Its IC50 is 2.9 ± 0.6 µM.

Q: What about the Fold change ([3]; JR-FL Env T143A + S146A) of the same compound?
A: Its Fold change is 0.7.

Q: What about the Fold change ([3]; JR-FL Env T163A + S164A) of the same compound?
A: The Fold change was 0.8.

Q: What about the Fold change ([3]; JR-FL Env V134A) of the same compound?
A: The Fold change was 0.8.

Q: And the IC50 ([3]; JR-FL Env V134A, read-out: IC50)?
A: The IC50 was 2.8 ± 2.1 µM.

Q: What about the Fold change ([3]; JR-FL Env V430S) of the same compound?
A: Its Fold change is 0.2.

Q: What about the IC50 ([3]; JR-FL Env V430S, read-out: IC50) of the same compound?
A: Its IC50 is 0.7 ± 0.3 µM.

Q: And the Fold change ([3]; JR-FL Env W112A)?
A: The Fold change was 0.8.

Q: And the IC50 ([3]; JR-FL Env W112A, read-out: IC50)?
A: Its IC50 is 2.8 ± 0.7 µM.

Q: What about the Fold change ([3]; JR-FL Env W479A) of the same compound?
A: The Fold change was 0.2.

Q: What about the IC50 ([3]; JR-FL Env W479A, read-out: IC50) of the same compound?
A: The IC50 was 0.8 ± 0.2 µM.

Q: And the Fold change ([3]; JR-FL Env Y173A)?
A: Its Fold change is 0.9.

Q: And the IC50 ([3]; JR-FL Env Y173A, read-out: IC50)?
A: The IC50 was 3.1 ± 1.2 µM.

Q: And the Fold change ([3]; JR-FL Env Y177A)?
A: The Fold change was 2.8.

Q: And the IC50 ([3]; JR-FL Env Y177A, read-out: IC50)?
A: The IC50 was 10.2 ± 1 µM.

Q: What about the Fold change ([3]; JR-FL Env Y435A) of the same compound?
A: Its Fold change is 3.5.

Q: What about the IC50 ([3]; JR-FL Env Y435A, read-out: IC50) of the same compound?
A: The IC50 was 12.7 ± 3.5 µM.

Q: And the IC50 ([3]; JR-FL Env double mutant E168K + N188A, read-out: IC50)?
A: Its IC50 is 2.4 ± 1.4 µM.

Q: What about the IC50 ([3]; JR-FL Env double mutant N187A + N188A, read-out: IC50) of the same compound?
A: Its IC50 is 2.5 ± 0.6 µM.

Q: And the IC50 ([3]; JR-FL Env double mutant T143A + S146A, read-out: IC50)?
A: The IC50 was 2.4 ± 0.2 µM.

Q: What about the IC50 ([3]; JR-FL Env double mutant T163A + S164A, read-out: IC50) of the same compound?
A: The IC50 was 2.7 ± 0.3 µM.

Q: And the Fold change ([3]; JR-FL Env wild type)?
A: The Fold change was 1.

Q: And the IC50 ([3]; JR-FL Env wild type, read-out: IC50)?
A: Its IC50 is 3.6 µM.

Q: And the “Therapeutic Index (TI)” value ([3]; calculated from IC50 against JR-FL and A-MLV)?
A: Its value is 15.9.

Q: And the “effect of glycosidase inhibitor treatment of virions on 18A inhibition” value ([3]; virions produced in the presence of two glycosidase inhibitors)?
A: Its value is “Neither treatment had a significant effect”.
